For this assay, the system named is HCV pseudoparticles (genotype 1a HCV E1 and E2 envelope, H77C isolate). In words: microbe, parasite or virus in culture. Type of assay: cell-based. Particulars: Hepatitis C virus.
Setting [1] is: Huh-7, 48 h, read-out: Activity (EC50 class), HCV pseudoparticle infection of Huh7 cells, luciferase 2 days after infection, EC50 expressed as class A/B.
Setting [2] is: Huh-7, 48 h, HCV pseudoparticles (genotype 1a, H77C) in Huh7 cells, average of duplicate, luciferase 2 days after infection.
Where [3] appears, read: Huh-7, read-out: Activity (EC50 class), HCV pseudoparticles (genotype 1a, H77C) in Huh7 cells, EC50 expressed as class A/B.
Setting [4] is: Huh-7, 48 h, read-out: Activity (EC50 class), HCV pseudoparticles, Huh7 cells, luciferase 2 days after infection, average of duplicates.
[5] abbreviates: Huh-7, 48 h, HCV pseudoparticle infection of Huh7 cells, luciferase 2 days after infection, average of duplicates.

Structures are written as SMILES. Where two headings read alike, the source gives them in different places.

On to `Cc1ccc(NC(=O)C(=O)NCC2(CNC(=O)c3ccc(Nc4nc(NC5(c6ccc(Cl)cc6)CC5)nc(OCC(F)(F)F)n4)cc3)CC2)cc1` [Compound 1600], for which the EC50 (in general, the concentration needed to bring the measured effect to its halfway point) under setting [1] was in the range of 0.01 to 10 nM.
As to `C=Cc1ccc(NC(=O)C(=O)NCC[C@H](NC(=O)c2ccc(Nc3nc(NC4(c5ccc(Cl)cc5)CC4)nc(OCC(F)(F)F)n3)cc2)C(=O)OC)cc1` [Compound 3129], the EC50 runs as follows: under setting [2], 0.089 nM; under setting [3], 0.01 to 10 nM.
Consider `COC(=O)[C@H](CCNC(=O)C(=O)Nc1ccc(N2CCCC2=O)cc1)NC(=O)c1ccc(Nc2nc(NC3(c4ccc(Cl)cc4)CC3)nc(OCC(F)(F)F)n2)cc1` [Compound 3126], for which the EC50 under setting [3] is 0.01 to 10 nM.
As to `COC(=O)[C@@H](CCNC(=O)C(=O)NC(CCO)C1CC1)NC(=O)c1ccc(Nc2nc(NC3(c4ccc(Cl)cc4)CC3)nc(OCC(F)(F)F)n2)cc1` (some centres unmarked) [Compound 1390], the EC50 under setting [1] fell in the range of 0.01 to 10 nM.
On to `COC(=O)[C@H](CNC(=O)C(=O)Nc1cccc(-c2csc(C)n2)c1)NC(=O)c1ccc(Nc2nc(NC3(c4ccc(Cl)cc4)CC3)nc(OCC(F)(F)F)n2)cc1` [Compound 3718], for which the EC50 under setting [4] was in the range of 0.01 to 10 nM.
As for `Cn1cc(NC(=O)C(=O)NCC(C)(C)CNC(=O)c2ccc(Nc3nc(NC4(c5ccc(Cl)cc5)CC4)nc(OCC(F)(F)F)n3)cc2)cn1` [Compound 3176], the EC50 under setting [3] is 0.01 to 10 nM.
On the same count and under the same terms, to `CC(C)(CNC(=O)C(=O)Nc1ncc(F)s1)CNC(=O)c1ccc(Nc2nc(NC3(c4ccc(Cl)cc4)CC3)nc(OCC(F)(F)F)n2)cc1` [Compound 3239] belongs 0.01 to 10 nM; to `COc1ccc(-c2ccccc2NC(=O)C(=O)NCC(C)(C)CNC(=O)c2ccc(Nc3nc(NC4(c5ccc(Cl)cc5)CC4)nc(OCC(F)(F)F)n3)cc2)cc1` [Compound 3065], 0.01 to 10 nM.
On to `Cc1ccc(NC(=O)C(=O)NCC(C)(C)CNC(=O)c2ccc(Nc3nc(NC4(c5ccc(Cl)cc5)CC4)nc(OCc4ccccc4F)n3)cc2)cc1` [Compound 3847], for which the EC50 is 0.027 nM (Huh-7, 48 h, HCV pseudoparticles, Huh7 cells, luciferase 2 days after infection, average of duplicates) and 0.01 to 10 nM under setting [4].
On to `CC1CCC(NC(=O)C(=O)NC[C@H](NC(=O)c2ccc(Nc3nc(NC4(c5ccc(Cl)cc5)CC4)nc(OCC(F)(F)F)n3)cc2)C(=O)O)CC1` (some centres unmarked) [Compound 1092], for which the EC50 under setting [1] is 0.01 to 10 nM.
Turning to `O=C(NCC[C@H](NC(=O)c1ccc(Nc2nc(NC3(c4ccc(Cl)cc4)CC3)nc(OCC(F)(F)F)n2)cc1)C(=O)O)C(=O)Nc1cccc(Oc2cccnc2)c1` [Compound 3662], the EC50 under setting [4] is 0.01 to 10 nM.
With `O=C(NCC[C@H](NC(=O)c1ccc(Nc2nc(NC3(c4ccc(Cl)cc4)CC3)nc(OCC(F)(F)F)n2)cc1)C(=O)O)C(=O)Nc1ccc(-c2ccncc2)cc1` [Compound 1525], under setting [1], the EC50 was in the range of 0.01 to 10 nM.
As to `CCc1ccc(NC(=O)C(=O)NC[C@H](NC(=O)c2ccc(Nc3nc(NC4(c5ccc(Cl)cc5)CC4)nc(OCC(F)(F)F)n3)cc2)C(=O)O)cc1` [Compound 3296], the EC50 reads like this: under setting [2], 0.24 nM; under setting [3], 0.01 to 10 nM.
Take `CCOC(=O)C(=O)NC[C@H](NC(=O)c1ccc(Nc2nc(NC3(c4ccc(Cl)cc4)CC3)nc(OCC(F)(F)F)n2)cc1)C(=O)OC` [Compound 1001, (S)-methyl 2-(4-(4-(1-(4-chlorophenyl)cyclopropylamino)-6-(2,2,2-trifluoroethoxy)-1,3,5-triazin-2-ylamino)benzamido)-3-(2-ethoxy-2-oxoacetamido)propanoate]: under setting [1], the EC50 was in the range of 10 to 1000 nM.
Take `O=C(NCCc1ccncc1)C(=O)NC[C@H](NC(=O)c1ccc(Nc2nc(NC3(c4ccc(Cl)cc4)CC3)nc(OCC(F)(F)F)n2)cc1)C(=O)O` [Compound 1400]: the EC50 is, setting by setting: under setting [5], 3.77 nM; under setting [1], 0.01 to 10 nM.
Take `O=C(NCc1ccc(F)cc1)C(=O)N(CCO)CCCNC(=O)c1ccc(Nc2nc(NC3(c4ccc(Cl)cc4)CC3)nc(OCC(F)(F)F)n2)cc1` [Compound 3502]: the EC50 under setting [3] lay in the range of 0.01 to 10 nM.
The same measure, in the same setting: to `CC(C)(CNC(=O)C(=O)NCc1ccc(F)cc1)CNC(=O)c1ccc(Nc2nc(NC3(c4ccc(Cl)cc4)CC3)nc(OCC(F)(F)F)n2)cc1F` [Compound 3514] belongs 0.01 to 10 nM; to `CC(C)(CNC(=O)C(=O)Nc1ccc(Cl)c(F)c1)CNC(=O)c1ccc(Nc2nc(NC3(c4ccc(Cl)cc4)CC3)nc(OCC(F)(F)F)n2)cc1F` [Compound 3513], 0.01 to 10 nM.
With `CCCNC(=O)C(NC(=O)c1ccc(Nc2nc(NC3(c4ccc(Cl)cc4)CC3)nc(OCC(F)(F)F)n2)cc1)C1CCCN(C(=O)C(N)=O)C1` (centres unmarked) [Compound 1019, N-(1-(1-(2-amino-2-oxoacetyl)piperidin-3-yl)-2-oxo-2-(propylamino)ethyl)-4-(4-(1-(4-chlorophenyl)cyclopropylamino)-6-(2,2,2-trifluoroethoxy)-1,3,5-triazin-2-ylamino)benzamide], the concentration for a half-maximal effect (EC50) under setting [1] lay within 0.01 to 10 nM.
For the molecule `COC(=O)[C@@H](CCNC(=O)C(=O)NCC1CC1c1ccc(F)cc1)NC(=O)c1ccc(Nc2nc(NC3(c4ccc(Cl)cc4)CC3)nc(OCC(F)(F)F)n2)cc1` (some centres unmarked) [Compound 1389], the EC50 under setting [1] fell in the range of 0.01 to 10 nM.
For the molecule `CC(C)(CNC(=O)C(=O)Nc1ccc2ncccc2c1)CNC(=O)c1ccc(Nc2nc(NC3(c4ccc(Cl)cc4)CC3)nc(OCC(F)(F)F)n2)cc1` [Compound 3038], the EC50 under setting [3] fell in the range of 0.01 to 10 nM.
As for `Cc1cc(NC(=O)C(=O)NCC(C)(C)CNC(=O)c2ccc(Nc3nc(NC4(c5ccc(Cl)cc5)CC4)nc(OCC(F)(F)F)n3)cc2)[nH]n1` [Compound 3673], under setting [4], the EC50 lay within 0.01 to 10 nM.
For the molecule `COC(=O)[C@H](CCNC(=O)C(=O)Nc1cccc(C(F)(F)F)c1)NC(=O)c1ccc(Nc2nc(NC3(c4ccc(Cl)cc4)CC3)nc(OCC(F)(F)F)n2)cc1` [Compound 1229], the EC50 under setting [1] is 0.01 to 10 nM.
For the molecule `Cn1cnc(NC(=O)C(=O)NCC(C)(C)CNC(=O)c2ccc(Nc3nc(NC4(c5ccc(Cl)cc5)CC4)nc(OCC(F)(F)F)n3)cc2)c1` [Compound 3178], the EC50 under setting [3] lay within 0.01 to 10 nM.
For the molecule `COc1ccc(CN(CC(C)(O)CNC(=O)c2ccc(Nc3nc(NC4(c5ccc(Cl)cc5)CC4)nc(OCC(F)(F)F)n3)cc2)C(=O)C(=O)Nc2ccc(C)cc2)c(OC)c1` (centres unmarked) [Compound 3833], the EC50 under setting [4] is 0.01 to 10 nM.
Consider `COC(=O)[C@H](CCNC(=O)C(=O)Nc1ccc(N(C)c2nc(C)cc(C)n2)cc1)NC(=O)c1ccc(Nc2nc(NC3(c4ccc(Cl)cc4)CC3)nc(OCC(F)(F)F)n2)cc1` [Compound 3133], for which the EC50 under setting [3] lay in the range of 0.01 to 10 nM.
On the same count and under the same terms, the same measure for `CC(C)(CNC(=O)c1ccc(Nc2nc(NC3(c4ccc(Cl)cc4)CC3)nc(OCC(F)(F)F)n2)cc1)NC(=O)C(=O)N1CCc2ccccc2C1` [Compound 3440]: 0.01 to 10 nM.
Turning to `COC(=O)[C@@H](CCNC(=O)C(=O)NCC1(CO)CC1)NC(=O)c1ccc(Nc2nc(NC3(c4ccc(Cl)cc4)CC3)nc(OCC(F)(F)F)n2)cc1` [Compound 1380], the EC50 under setting [1] is 0.01 to 10 nM.
In the case of `CC(C)(CNC(=O)C(=O)Nc1ccccc1-n1cccn1)CNC(=O)c1ccc(Nc2nc(NC3(c4ccc(Cl)cc4)CC3)nc(OCC(F)(F)F)n2)cc1` [Compound 3015], the EC50 under setting [3] lay in the range of 0.01 to 10 nM.
As for `COC(=O)[C@H](CCNC(=O)C(=O)Nc1ccc(-n2ccnc2)cc1)NC(=O)c1ccc(Nc2nc(NC3(c4ccc(Cl)cc4)CC3)nc(OCC(F)(F)F)n2)cc1` [Compound 3300], under setting [3], the EC50 is 10 to 1000 nM.
As to `NC(=O)C(=O)NCC1(CNC(=O)c2ccc(Nc3nc(NC4(c5ccc(Cl)cc5)CC4)nc(OCC(F)(F)F)n3)cc2)CC1` [Compound 3175], the EC50 was 0.11 nM under setting [2] and 0.01 to 10 nM under setting [3].
Take `COC(=O)[C@H](CCNC(=O)C(=O)Nc1ccccn1)NC(=O)c1ccc(Nc2nc(NC3(c4ccc(Cl)cc4)CC3)nc(OCC(F)(F)F)n2)cc1` [Compound 1237]: the EC50 was 0.77 nM under setting [5] and 0.01 to 10 nM under setting [1].

The record behind these values is patent US8916702B2 (priority 2012, dated 2014).
